# Tests used:
# S. aureus ATCC 29213 [1] = experiment: Drug interaction of 22 with FDA-approved drugs, checkerboard method; type: cell-based, Staphylococcus aureus; settings: for MIC of drug in the presence of “22” “B”: S. aureus ATCC 29213, checkerboard, in combination with 22; for MIC: Staphylococcus aureus, ATCC29213, 24 h, read-out: MIC (drug alone); for Inference (drug interaction): combination of 22 with the drug, S. aureus ATCC 29213
# A. baumannii BAA 1605 = experiment: MIC by broth microdilution against A. baumannii BAA 1605; type: cell-based; settings: Acinetobacter baumannii, BAA1605, read-out: MIC against A. baumannii BAA 1605
# E. coli ATCC 25922 = experiment: MIC by broth microdilution against E. coli ATCC 25922; type: cell-based; settings: Escherichia coli, ATCC25922, read-out: MIC against E. coli ATCC 25922
# K. pneumoniae BAA 1705 = experiment: MIC by broth microdilution against K. pneumoniae BAA 1705; type: cell-based; settings: Klebsiella pneumoniae, BAA1705, read-out: MIC against K. pneumoniae BAA 1705
# S. aureus ATCC 29213 [2] = experiment: MIC by broth microdilution against S. aureus ATCC 29213; type: cell-based, Staphylococcus aureus; settings: for MIC against S. aureus ATCC 29213: broth microdilution, 37 °C, 16–18 h; for MIC: Staphylococcus aureus, ATCC29213, read-out: MIC against S. aureus ATCC 29213, broth microdilution, 37 °C, 16–18 h
# VRSA VRS 1 = experiment: MIC against clinical VRSA isolate VRS 1; type: cell-based; settings: Staphylococcus aureus, read-out: MIC against VRSA VRS 1
# [3] = tested on: clinical MDR S. aureus isolates (MRSA and VRSA); experiment: MIC against clinical MDR S. aureus isolates, whole panel; type: cell-based, Staphylococcus aureus; settings: nine MRSA and three VRSA strains
# MRSA NRS 10100 = experiment: MIC against clinical MRSA isolate NRS 10100; type: cell-based; settings: Staphylococcus aureus, MRSA|NRS10100, read-out: MIC against MRSA NRS 10100
# MRSA NRS 10129 = experiment: MIC against clinical MRSA isolate NRS 10129; type: cell-based; settings: Staphylococcus aureus, MRSA|NRS10129, read-out: MIC against MRSA NRS 10129
# MRSA NRS 10186 = experiment: MIC against clinical MRSA isolate NRS 10186; type: cell-based; settings: Staphylococcus aureus, MRSA|NRS10186, read-out: MIC against MRSA NRS 10186
# VRSA VRS 4 = experiment: MIC against clinical VRSA isolate VRS 4; type: cell-based; settings: Staphylococcus aureus, read-out: MIC against VRSA VRS 4
# VRSA VRS 12 = experiment: MIC against clinical VRSA isolate VRS 12; type: cell-based; settings: Staphylococcus aureus, read-out: MIC against VRSA VRS 12
# MRSA NRS 10119 = experiment: MIC against clinical MRSA isolate NRS 10119; type: cell-based; settings: Staphylococcus aureus, MRSA|NRS10119, read-out: MIC against MRSA NRS 10119
# MRSA NRS 10193 = experiment: MIC against clinical MRSA isolate NRS 10193; type: cell-based; settings: Staphylococcus aureus, MRSA|NRS10193, read-out: MIC against MRSA NRS 10193
# MRSA NRS 10191 = experiment: MIC against clinical MRSA isolate NRS 10191; type: cell-based; settings: Staphylococcus aureus, MRSA|NRS10191, read-out: MIC against MRSA NRS 10191
# MRSA NRS 10198 = experiment: MIC against clinical MRSA isolate NRS 10198; type: cell-based; settings: Staphylococcus aureus, MRSA|NRS10198, read-out: MIC against MRSA NRS 10198
# MRSA NRS 10192 = experiment: MIC against clinical MRSA isolate NRS 10192; type: cell-based; settings: Staphylococcus aureus, MRSA|NRS10192, read-out: MIC against MRSA NRS 10192
# MRSA NRS 10194 = experiment: MIC against clinical MRSA isolate NRS 10194; type: cell-based; settings: Staphylococcus aureus, MRSA|NRS10194, read-out: MIC against MRSA NRS 10194
Structure (SMILES),MIC (A. baumannii BAA 1605) [µg/mL],MIC (E. coli ATCC 25922) [µg/mL],MIC (K. pneumoniae BAA 1705) [µg/mL],MIC (S. aureus ATCC 29213 [2]) [µg/mL],also measured
CNC(C)C1CCC(N)C(OC2C(N)CC(N)C(OC3OCC(C)(O)C(NC)C3O)C2O)O1 (centres unmarked) [Gentamicin],–,–,–,–,MIC of drug in the presence of “22” “B” (S. aureus ATCC 29213 [1]): 0.25 µg/mL; MIC (S. aureus ATCC 29213 [1]): 0.5 µg/mL; Inference (drug interaction) (S. aureus ATCC 29213 [1]): No interaction
CC(=O)NC[C@H]1CN(c2ccc(N3CCOCC3)c(F)c2)C(=O)O1 [Linezolid],–,–,–,–,MIC of drug in the presence of “22” “B” (S. aureus ATCC 29213 [1]): 0.5 µg/mL; MIC (S. aureus ATCC 29213 [1]): 2 µg/mL; Inference (drug interaction) (S. aureus ATCC 29213 [1]): No interaction
"O=C(Nc1ccc(F)c(F)c1)c1cc(Cl)ccc1O [Compound 12, 5-Chloro-N-(3ʹ,4ʹ-difluorophenyl)-2-hydroxybenzamide]",> 64,> 64,> 64,–,MIC against S. aureus ATCC 29213 (S. aureus ATCC 29213 [2]): 0.5 µg/mL
"O=C(Nc1ccc(Cl)c(C(F)(F)F)c1)c1cc(Cl)ccc1O [Compound 20, 5-Chloro-N-(4ʹ-chloro-3ʹ-(trifluoromethyl)phenyl)-2-hydroxybenzamide]",> 64,> 64,> 64,0.25,MIC (VRSA VRS 1): 0.5 µg/mL; MIC against MRSA and VRSA isolates (range over the panel) [3]: 0.25 to 0.5 µg/mL; MIC (MRSA NRS 10100): 0.5 µg/mL; MIC (MRSA NRS 10129): 0.5 µg/mL; MIC (MRSA NRS 10186): 0.5 µg/mL; MIC (VRSA VRS 4): 0.25 µg/mL; MIC (VRSA VRS 12): 0.5 µg/mL; MIC (MRSA NRS 10119): 0.5 µg/mL; MIC (MRSA NRS 10193): 0.5 µg/mL; MIC (MRSA NRS 10191): 0.5 µg/mL; MIC (MRSA NRS 10198): 0.5 µg/mL; MIC (MRSA NRS 10192): 0.5 µg/mL; MIC (MRSA NRS 10194): 0.5 µg/mL
"O=C(Nc1ccccc1)c1cc(Cl)ccc1O [Compound 6, 5-Chloro-N-(phenyl)-2-hydroxy-benzamide]",> 64,> 64,> 64,8,–
"O=C(Nc1ccc(F)c(F)c1)c1ccccc1O [Compound 11, N-(3ʹ,4ʹ-difluorophenyl)-2-hydroxybenzamide]",> 64,> 64,> 64,–,–
"O=C(Nc1ccc(F)cc1)c1ccccc1O [Compound 7, N-(4ʹ-fluorophenyl)-2-hydroxybenzamide]",> 64,> 64,> 64,–,–
CC(C)(O/N=C(\C(=O)N[C@@H]1C(=O)N2C(C(=O)[O-])=C(C[n+]3ccccc3)CS[C@H]12)c1csc(N)n1)C(=O)O [Ceftazidime],–,–,–,–,MIC of drug in the presence of “22” “B” (S. aureus ATCC 29213 [1]): 16 µg/mL; MIC (S. aureus ATCC 29213 [1]): 16 µg/mL; Inference (drug interaction) (S. aureus ATCC 29213 [1]): No interaction
"O=C(Nc1ccc(F)cc1[N+](=O)[O-])c1ccccc1O [Compound 15, N-(4ʹ-fluoro-2ʹ-nitrophenyl)-2-hydroxybenzamide]",> 64,> 64,> 64,32,–
"O=C(Nc1ccc(F)cc1)c1cc(Cl)ccc1O [Compound 8, 5-Chloro-N-(4ʹ-fluorophenyl)-2-hydroxybenzamide]",> 64,> 64,> 64,2,–
"O=C(Nc1ccccc1)c1cccc(Cl)c1 [Compound 4, N-(phenyl)-3-chlorobenzamide]",> 64,> 64,> 64,> 64,–
"O=C(Nc1ccc([N+](=O)[O-])cc1F)c1ccccc1O [Compound 17, N-(2ʹ-fluoro-4ʹ-nitrophenyl)-2-hydroxybenzamide]",–,–,–,2,–
"O=C(Nc1ccc(F)cc1[N+](=O)[O-])c1cc(Cl)ccc1O [Compound 16, 5-Chloro-N-(4ʹ-fluoro-2ʹ-nitrophenyl)-2-hydroxybenzamide]",> 64,> 64,> 64,3.88,MIC against S. aureus ATCC 29213 (S. aureus ATCC 29213 [2]): 4 µg/mL
"O=C(Nc1ccccc1F)c1cc(Cl)ccc1O [Compound 10, 5-Chloro-N-(2ʹ-fluorophenyl)-2-hydroxybenzamide]",> 64,> 64,> 64,4,–

# Source: publication PMC8548355 (Medicinal Chemistry Research, 2021)
